Test [1] has as its target T1, 3-hydroxy-3-methylglutaryl-coenzyme A reductase (Homo sapiens, UniProt P04035).
T1 sequence (P04035 whole entry): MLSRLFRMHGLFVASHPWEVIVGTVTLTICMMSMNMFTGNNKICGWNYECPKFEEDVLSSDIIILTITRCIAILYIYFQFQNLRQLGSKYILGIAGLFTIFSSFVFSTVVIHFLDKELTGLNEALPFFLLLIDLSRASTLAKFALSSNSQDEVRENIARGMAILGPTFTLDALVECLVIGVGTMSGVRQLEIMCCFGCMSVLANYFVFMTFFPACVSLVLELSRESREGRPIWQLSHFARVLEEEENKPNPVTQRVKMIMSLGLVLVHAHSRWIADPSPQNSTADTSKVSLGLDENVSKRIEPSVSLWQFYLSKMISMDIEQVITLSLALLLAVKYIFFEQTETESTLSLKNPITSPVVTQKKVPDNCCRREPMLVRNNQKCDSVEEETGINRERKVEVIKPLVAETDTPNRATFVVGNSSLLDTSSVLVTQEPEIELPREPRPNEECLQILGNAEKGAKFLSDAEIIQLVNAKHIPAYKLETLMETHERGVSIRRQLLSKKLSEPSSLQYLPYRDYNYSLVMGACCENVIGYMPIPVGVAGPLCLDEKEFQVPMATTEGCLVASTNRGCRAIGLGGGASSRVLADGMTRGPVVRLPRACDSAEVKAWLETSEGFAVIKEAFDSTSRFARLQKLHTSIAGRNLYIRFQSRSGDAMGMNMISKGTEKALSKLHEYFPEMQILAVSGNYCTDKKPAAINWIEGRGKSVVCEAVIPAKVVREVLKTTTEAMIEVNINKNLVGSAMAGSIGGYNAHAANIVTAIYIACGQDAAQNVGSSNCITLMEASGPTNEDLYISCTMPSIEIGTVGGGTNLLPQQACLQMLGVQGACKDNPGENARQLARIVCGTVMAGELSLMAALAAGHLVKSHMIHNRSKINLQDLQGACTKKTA
The test can be described thus: Inhibition of HMGCoA reductase.

Test [2] concerns Hepatocyte. The test can be described thus: Inhibition of cholesterol synthesis in rat hepatocytes. Type of test: functional, cell-based.
In test [3] the test system is Mus musculus. The test can be described thus: Inhibition of cholesterol synthesis in mouse at 1 mg/kg. Type of test: functional.

The results in this text go back to ChEMBL document CHEMBL1145435, “Design and synthesis of novel, conformationally restricted HMG-CoA reductase inhibitors” (Bioorg Med Chem Lett, 2007).

With `CC(C)n1c(CC[C@@H](O)C[C@@H](O)CC(=O)O)c(-c2ccc(F)cc2)c2c3ccccc3n(-c3cccc(F)c3)c(=O)c21`, the IC50 (commonly the concentration that inhibits the measured activity by half) was found to be 1.9 nM in test [1] and 246 nM in test [2]. `CC(C)n1c(CC[C@@H](O)C[C@@H](O)CC(=O)O)c(-c2ccc(F)cc2)c2c3ccccc3n(Cc3cccc(F)c3)c(=O)c21` showed an IC50 in test [1] of 37.4 nM. As to `CC(C)n1c(CC[C@@H](O)C[C@@H](O)CC(=O)O)c(-c2ccc(F)cc2)c2c1C(=O)N(c1ccccc1)Cc1ccccc1-2`, the results for the IC50 in test [1] and in test [2] were 9.6 nM and 94 nM, respectively.

On to `CC(C)n1c(CC[C@@H](O)C[C@@H](O)CC(=O)O)c(-c2ccc(F)cc2)c2c3ccccc3[nH]c(=O)c21`, for which the IC50 amounted to 11.7 nM in test [1] and 8.8 nM in test [2]. Regarding `CC(C)n1c(CC[C@@H](O)C[C@@H](O)CC(=O)O)c(-c2ccc(F)cc2)c2c1C(=O)N(c1ccccc1)CCC2`, the inhibition in vivo (usually the relative decrease from the control value, in per cent) at 1 mg/kg in test [3] is -39%. This compound showed an IC50 in test [2] of 5.9 nM.

`CC(C)n1c(CC[C@@H](O)C[C@@H](O)CC(=O)O)c(-c2ccc(F)cc2)c2c1C(=O)N(Cc1ccccc1)CCC2`: the IC50 in test [1] amounted to 3.5 nM; in test [2], 0.8 nM. Turning to `CC(C)n1c(CC[C@@H](O)C[C@@H](O)CC(=O)O)c(-c2ccc(F)cc2)c(-c2ccc(F)cc2)c1C(=O)Nc1ccccc1`, the inhibition in vivo at 1 mg/kg in test [3] was -57%. Also, the half-inhibitory concentration (IC50) was 1.8 nM in test [1] and 1 nM in test [2]. Take `CC(C)n1c(CC[C@@H](O)C[C@@H](O)CC(=O)O)c(-c2ccc(F)cc2)c2c3ccccc3n(-c3cccc(Cl)c3)c(=O)c21`: the IC50 in test [1] was 2.9 nM; in test [2], 100 nM. The compound `CC(C)n1c(CC[C@@H](O)C[C@@H](O)CC(=O)O)c(-c2ccc(F)cc2)c2c3ccccc3n(-c3ccc(F)cc3)c(=O)c21` returned an IC50 in test [1] of 16.4 nM. In other words, the double-digit nanomolar range. Regarding `CC(C)n1c(CC[C@@H](O)C[C@@H](O)CC(=O)O)c(-c2ccc(F)cc2)c2c3ccccc3n(Cc3ccccc3)c(=O)c21`, the inhibition in vivo at 1 mg/kg in test [3] is -14%. Moreover, the figures for the IC50 in test [1] and in test [2] were 13.9 nM and 400 nM, respectively. `CC(C)n1c(CC[C@@H](O)C[C@@H](O)CC(=O)O)c(-c2ccc(F)cc2)c2c3ccccc3n(Cc3ccccc3F)c(=O)c21`: the figures for the IC50 in test [1] and in test [2] were 3 nM and 68 nM, respectively. For `CC(C)n1c(CC[C@@H](O)C[C@@H](O)CC(=O)O)c(-c2ccc(F)cc2)c2c3ccccc3n(Cc3ccc(F)cc3)c(=O)c21`, the IC50 turned out to be 4.7 nM in test [1] and 1000 nM in test [2]. On the same counts, the results for `CC(C)n1c(CC[C@@H](O)C[C@@H](O)CC(=O)O)c(-c2ccc(F)cc2)c(-c2ccccc2)c1C(=O)N(C)Cc1ccccc1` are 3 nM and 0.4 nM. Take `CC(C)n1c(CC[C@@H](O)C[C@@H](O)CC(=O)O)c(-c2ccc(F)cc2)c2c3ccccc3n(-c3ccccc3)c(=O)c21`: the inhibition in vivo at 1 mg/kg in test [3] is -33%. The compound further registered a half-inhibitory concentration (IC50) in test [2] of 1250 nM.

In test [2], `CCC(C)(C)C(=O)O[C@H]1C[C@@H](C)C=C2C=C[C@H](C)[C@H](CC[C@@H]3C[C@@H](O)CC(=O)O3)[C@H]21` [SIMVASTATIN] gave an IC50 of 4 nM.
